How the values were obtained:
Mushroom tyrosinase = assay: Inhibition of mushroom tyrosinase activity; assay type: biochemical; details: concentration not given
Method: All chemical used for reagents were purchased from Sigma Chemical Company. KST201 at each tested concentration (1000, 250 and 100 μM) was dissolved in 10% ethanol from a master mixture of the drug prepared at 0.1M in 100% ethanol.
Mushroom tyrosinase (Sigma) was diluted in 50 mM phosphate buffer, pH 6.5 to yield a concentration of 16 U/μl. […] A master mix containing 0.5 mM L-DOPA [3,4-dihydroxy-1-phenylalanine], 10 mM Sodium L-tyrosine in 50 mM phosphate buffer, pH 6.5 was prepared. The KST-201 dilutions were preincubated with the enzyme for 20 minutes. The samples were pipetted into 24 well plates and the master mixture added quickly. The reaction was read using a kinetic format in which wells were read every 30 seconds over a course of 10 minutes at a wavelength of 475 nm using a Synergy HT Plate reader. A kinetic curve was generated for each sample compared to a total reaction with mushroom tyrosinase without a drug (total).

WiDR = assay: MTT cytotoxicity, WiDR colon; assay type: cell-based; details: Homo sapiens, 72 h, 3 Days, read-out: CD50 (μM) WiDR
Method: (§1) Cell killing was evaluated using the colorimetric MTT assay. The assay measures the formation of a colored product from a chromogenic precursor, the tetrazole 3-[4,5-dimethylthiazol-2-yl]-2,5 diphenyltetrazolium bromide (MTT). The yellow MTT is reduced to purple formazan in the mitochondria of living cells. A solubilization solution (typically dimethyl sulfoxide or sodium dodecyl sulfate in dilute hydrochloric acid) is added to dissolve the insoluble purple formazan product into a colored solution. The absorbance of this colored solution is quantified by measuring at a certain wavelength (usually between 500 and 600 nm) by a spectrophotometer. The amount of purple formazan product generated is proportional to the number of viable cells (Mosmann, T., 1983, J. Immunol. Meth. 65:55-63; Wilson, A. P., Cytotoxicity and Viability Assays. In: Animal Cell Culture: A Practical Approach, 3rd ed. (Masters, J R W, ed.) Oxford University Press: Oxford, Vol. 1, pp. 175-219. 2000). This MTT assay is used widely to assess the cytotoxicity and selectivity of compounds such as anti-cancer drugs. The assay is suitable for rapid toxicity characterization of a test agent such as a drug formulation. […] A lower CD50 indicates a greater cytotoxic activity (as a lower amount of the agent is needed to achieve a fixed level of cytotoxicity). […]

HCT116 = assay: MTT cytotoxicity, HCT116 colon; assay type: cell-based; details: Homo sapiens, HCT-116, 72 h; 3 Days; read-out: CD50 (μM) HCT116
Method: as §1

NF-κB p65 = NF-κB p65 DNA-binding activity in DU145 cells (ELISA); assay type: cell-based, human; details: for DNA binding of p65, % of basal activity: 100 μM
Method: An ELISA kit (Pierce, Rockford, Ill.) was used to detect the active forms of NF-κB p65 by measuring its binding to a consensus DNA sequence. A primary antibody specific for p65 and a secondary horse-radish peroxidase (HRP)-conjugated antibody were used sequentially to produce immobilized p65-HRP complexes. A chemiluminescent substrate for HRP was added and the reaction read using the Fluoroskan Ascent FL plate reader
An ELISA kit (Pierce, Rockford, Ill.) was used to detect the active forms of NF-κB p65 by measuring its binding to a consensus DNA sequence. […] As controls, untreated cells were prepared under the same conditions. Cells were collected by scraping and incubated in ice-cold RIPA lysis buffer containing 1% NP40, 0.5% sodium deoxycholate, 0.1% SDS and protease inhibitor cocktail. After centrifugation, the supernatant was transferred to a streptavidin-coated 96-well plate. Active p65 in the sample binds to the immobilized DNA molecules.
To ensure the signal specificity, competitive DNA fragments containing a NF-κB binding site were used to prevent the binding of NF-κB to the consensus sequence. A primary antibody specific for p65 and a secondary HRP-conjugated antibody were added to each well sequentially, resulting in an immobilized p65-HRP complex. Unbound antibodies were washed away. A mixture of luminol/enhancer and peroxide solution was added into each well as a chemiluminescent substrate for HRP. The chemiluminescent signal, proportional to the relative amount of active p65 in the sample, was detected using the Fluoroskan Ascent FL plate reader (Thermo, Waltham, Mass.).
DNA sequences containing p65-binding site were immobilized to wells of 96-well plates, allowing activated p65 to bind. After washing, the amount of bound p65 was detected and quantified by the above method. The DNA-binding of active p65 was determined by the intensity of chemiluminescence produced by DNA-p65-HRP complex immobilized on well surfaces. The results represent the mean±SD of triplicate determinations. An inhibitor of p65 binding to DNA was added to confirm specificity. […]

Vero cells = assay: Cytotoxicity (CD50) on Vero cells; assay type: cell-based; details: 48 hours of exposure
Excerpt: See Example II for tumor cell cytotoxicity of these compounds. […] NAB group 32 contains two compounds, Tolan-2 (also designated herein as KST-201) and Stil-2. Based on the NAB, they were classified as topological isomers. However, chemically they differ because Stil-2, a […], contained a double bonded linker, while Tolan-2 contained a triple bonded linker. The cytotoxicity of the two molecules on Vero cells differed markedly: Tolan-2 was less toxic than Stil-2.

HSV-1 = HSV-1 replication in infected Vero cells (plaque assay); assay type: cell-based, Herpes Simplex Virus-Type 1; details: for IC50: Human alphaherpesvirus 1, Vero, read-out: IC50, concentration at which 50% of HSV-1 replication was inhibited
Method: For this purpose HSV-1 replication at 24, 48 and 72 h was examined in the presence or absence of varying concentrations of the polyphenol.
The SI is the ratio of the CD50 divided by a selected inhibitory concentration (IC %).
Viral inhibition by Tolan-3 appeared to occur after viral entry into cells. […] Subsequently, the compound was removed and replaced with culture medium alone, and the incubated continued for 48 or 72 more hrs. In a second experiment, HSV-1 infected Vero cells were incubated with 350 μM Tolan-3 for 48 h. Thereafter, the Tolan-3 was removed and replaced by medium and the incubation continued for an additional 24 h. Viral titers were calculated by a standard plaque assay.

HT29 = assay: MTT cytotoxicity, HT29 colon; assay type: cell-based; details: Homo sapiens, HT-29, 72 h; 3 Days; read-out: CD50 (μM) HT29
Method: as §1

For `Oc1ccc(/C=C/c2cc(O)cc(O)c2)cc1` [Resveratrol, 3,5,4′-trihydroxy-trans-stilbene, reference compound], the “% inhibition of mushroom tyrosinase activity” value (Mushroom tyrosinase) was 59.9±7.4%, the IC50 (WiDR) was 142 ± 6.4 µM and the IC50 (HCT116) was 94 ± 0.1 µM. For the same compound, the “DNA binding of p65, % of basal activity” value (NF-κB p65; 12 hours) was 55.3%, the “DNA binding of p65, % of basal activity” value (NF-κB p65; 24 hours) was 40.2% and the “DNA binding activity of p65, % of basal activity” value (NF-κB p65; 24-hour treatment at 5, 25 and 50 μM) was roughly 80%. For the same compound, the CD50 (Vero cells) was 264 µM, the “Log CD50” value (Vero cells) was 2.42 and the IC50 (HSV-1) was 23.4 µM. For the same compound, the IC50 (HT29) was 163 ± 0.3 µM.
With `Oc1ccc(C#Cc2ccc(O)cc2)cc1` [KST-201, 4,4′-dihydroxytolan] the “% inhibition of mushroom tyrosinase activity” value (Mushroom tyrosinase) was 59.2±13%, the IC50 (WiDR) was 80 ± 0.9 µM and the IC50 (HCT116) was 129 ± 4 µM. The “Reduction of DNA-binding activity of NF-κB by at least 50%” value (NF-κB p65; 12-hour treatment) was “not sufficient to reduce DNA-binding activity of NF-κB”, the “NF-κB inhibition compared with resveratrol” value (NF-κB p65; 24-hour treatment, 50 and 100 μM) was “more effective inhibitor of NF-κB” and the CD50 (Vero cells) was 106 µM. The “Log CD50” value (Vero cells) was 2.03, the “SI50 (selectivity index, CD50 divided by IC50)” value (HSV-1; 48 h post-infection) was 6.8 and the IC50 (HSV-1) was 15.6 µM. For the same compound, the “Effect on HSV-1 viral replication in Vero cells (in words)” value (HSV-1; at CD50, 75% and 50% of CD50, 24, 48, 72 h) was “significant anti-HSV activity” and the IC50 (HT29) was 79 ± 0.8 µM.

Reference: patent US8716355B2, “Hydroxylated tolans and related compounds in the treatment of a cancer” (Kent State University, priority 2007, dated 2014)
